Test results taken from patent US11479568B2, “Silacrown ethers, pharmaceutical compositions thereof, and therapeutic applications thereof” (priority 2020, dated 2022).

Columns and labels:
[1] = system: vascular smooth muscle tissue; assay: Vascular tissue contractile response (muscle bath, KCl-contracted tissue); assay type: cell-based, white New Zealand rabbits and human; conditions: cumulative 10^-8 to 10^-5 M, tissue contracted with KCl, FIG. 1 and FIG. 2
Method: Ginsburg (Stanford University Medical School), crown and silacrown ethers in concentrations of 10^−8M, 10^−7 M, 10^−6 M and 10^−5M were prepared fresh daily in deionized water. The 10^−5 M concentrations were used for the preliminary screening of the ionophores for vasoactivity to determine the most promising candidates. The procedures utilized in the removal and preparation of vascular smooth muscle tissue obtained from aorta of white New Zealand rabbits and human hearts from transplant patients are well established and have been successfully utilized by the personnel at Stanford University Medical School (Cardiology Department). A computer interfaced muscle bath system designed by Dr. Robert Ginsburg and associates was used to carry out the experimental procedure. The chambers (32 per system) were filled with standard Tyrode solution (chambers maintain a constant volume of 100 ml) and aerated continuously. The tissues were placed in the chambers and connected to stainless steel hooks to a linear motion transducer and preequilibrated for 1.5 hours at a constant temperature of 37° C. (a tension of 0.5 g was maintained during the pre-equilibration period).
A starting tension of approximately 0.5 g was achieved before adding the agonist ([…] KCl final concentration) to contract the tissues. After the contractions leveled off, the tensions were recorded before and after the crown ethers were added. To test for tissue integrity, 10^−5 M nitroglycerin was added at the end of the experiment (some relaxation should be observed), and the tension was recorded. […]
Accumulative dose response curves were obtained by repeating the previous procedure on both human and rabbit vascular smooth muscle tissues as previously described. However, crown ether concentrations of 10^−8 M, 10^−7 M, 10^−6 M and 10^−5 M were added accumulatively instead of only one dose (10^−5 M was used to screen the crowns) and the tensions recorded for each concentration (before the next concentration of ionophore was added, the contractile tension of the tissue had leveled off).

mice = conditions: reported by Gad et al.; cited from earlier work
[2] = system: adult albino Sprague-Dawley rats; assay: Acute oral toxicity study in rats (GLP); assay type: in vivo, rat
From the text: (§1) No mortality was observed during the study. […] Animals were asymptomatic by day 3. […] Thus, crown ethers and silacrown ethers of similar cavity size behave similarly, but the silacrown ethers have dramatically lower toxicity.

[3] = Acute oral toxicity study in rats (GLP); assay type: in vivo, rat; conditions: rat, in vivo, adult albino Sprague-Dawley rats
From the text: as §1

Compound	contractile response of vascular smooth muscle tissue (relaxation) [1]	LD50 acute oral toxicity (mice)	further results
12-crown-6 [Example 12-crown-6]	similar		
C[Si]1(C)OCCOCCOCCO1 [1,1-dimethylsila-11-crown-4]	similar		
C1COCCOCCOCCO1 [Example 12-crown-4, 12-crown-4]		2830 mg/kg	
C1COCCOCCOCCOCCO1 [Example 15-crown-5, 15-crown-5]		2100 mg/kg	
C1CCC2OCCOCCOC3CCCCC3OCCOCCOC2C1 (stereo not drawn) [dicyclohexano-18-crown-6]		176 mg/kg	
C1CCC2OCCOCCOCCOC3CCCCC3OCCOCCOCCOC2C1 (stereo not drawn) [dicyclohexano-24-crown-8]		75 mg/kg	
C[Si]1(C)OCCOCCOCCOCCO1 [dimethylsila-14-crown-5]			acute oral LD50 [2]: 9,900 mg/kg
C[Si]1(C)OCCOCCOCCOC2CCCCC2O1 (stereo not drawn) [dimethylsila-14-cyclohexylcrown-5, Dimethylsila-14-cyclohexylcrown-5]			LD50 [3]: > 5000 mg/kg
C[Si]1(C)OCCOCCOCCOCCOCCO1 [dimethylsila-17-crown-6]	similar		
